Values of other authors, collected in patent US20210228489A1, “COMPOSITIONS FOR TREATING CYSTIC FIBROSIS” (Vertex Pharmaceuticals Incorporated, priority 2017, published 2021).

Test system: CFTR
Conditions: CFTR modulator; disclosed in PCT Publication No. WO 2016/057572

With `CC(C)COc1cc(F)cc(-c2ccc(C(=O)NS(=O)(=O)c3cccc(N)n3)c(N3C[C@@H](C)CC3(C)C)n2)c1` [Compound I, N-[(6-amino-2-pyridyl)sulfonyl]-6-(3-fluoro-5-isobutoxy-phenyl)-2-[(4S)-2,2,4-trimethylpyrrolidin-1-yl]pyridine-3-carboxamide] as the molecule, how does the EC30 read?
The EC30 was less than 3000 nM.
